Consider three compounds from ChEMBL document CHEMBL4376803, “Recent Advances in the Exploration of Therapeutic Analogues of Gramicidin S, an Old but Still Potent Antimicrobial Peptide” (J Med Chem, 2019).

Data set [1] relates to Erythrocyte. Put plainly: Hemolytic activity against RBC (unknown origin) at 100 ul after 4 hrs. The conditions noted are these: erythrocyte, 4 h. The data set is classed as ADME, cell-based.
The test system of data set [2] is Staphylococcus aureus. In words: Antibacterial activity against Staphylococcus aureus ATCC 25923 after 22 hrs by double dilution method. It is filed as functional. The conditions noted are these: ATCC 25923, 22 h.
In data set [3] the test system is Erythrocyte. In words: Haemolytic activity in human RBC after 30 mins by spectrophotometric analysis. The data set is classed as ADME, cell-based. The conditions noted are these: 0.5 h.
The nature of data set [4]: Therapeutic index, ratio of HC90 for hemolytic activity in human erythrocytes to MIC against Escherichia coli ATCC 25922. Conditions: read-out: TI. The data set is classed as toxicity, cell-based.
For data set [5], the system named is Escherichia coli. In words: Antibacterial activity against Escherichia coli ATCC 25922 after 22 hrs by double dilution method. The conditions noted are these: ATCC 25922, 22 h. It is filed as functional.
Data set [6] can be described thus: Therapeutic index, ratio of HC90 for hemolytic activity in human erythrocytes to MIC against Pseudomonas aeruginosa ATCC 27853. Conditions: read-out: TI. It is filed as toxicity, cell-based.
The test system of data set [7] is Pseudomonas aeruginosa. Put plainly: Antibacterial activity against Pseudomonas aeruginosa ATCC 27853 after 22 hrs by double dilution method. The data set is classed as functional. The conditions noted are these: ATCC 27853, 22 h.
Data set [8] can be described thus: Therapeutic index, ratio of HC90 for hemolytic activity in human erythrocytes to MIC against Staphylococcus epidermidis ATCC 12228. The data set is classed as toxicity, cell-based. Conditions: read-out: TI.
Data set [9] in a line: Therapeutic index, ratio of HC90 for hemolytic activity in human erythrocytes to MIC against Enterococcus faecalis ATCC 29212. Conditions: read-out: TI. The data set is classed as toxicity, cell-based.
In data set [10] the test system is Staphylococcus epidermidis. Put plainly: Antibacterial activity against Staphylococcus epidermidis ATCC 12228 after 22 hrs by double dilution method. The data set is classed as functional. Conditions: ATCC 12228, 22 h.
Data set [11] relates to Enterococcus faecalis. Put plainly: Antibacterial activity against Enterococcus faecalis ATCC 29212 after 22 hrs by double dilution method. The data set is classed as functional. The conditions noted are these: ATCC 29212, 22 h.
Data set [12] in a line: Therapeutic index, ratio of HC90 for hemolytic activity in human erythrocytes to MIC against Staphylococcus aureus ATCC 25923. The data set is classed as toxicity, cell-based. The conditions noted are these: read-out: TI.
Data set [13] is described as follows: Therapeutic index, ratio of HD100 for hemolytic activity in human RBC to MIC against Enterococcus faecalis. The data set is classed as toxicity. Conditions: human red blood cells, read-out: TI.
Data set [14] has as its system Enterococcus faecalis. Put plainly: Antibacterial activity against Enterococcus faecalis after 24 hrs by microtitre dilution method. The data set is classed as functional.
In data set [15] the test system is Escherichia coli. In words: Antibacterial activity against Escherichia coli after 24 hrs by microtitre dilution method. It is filed as functional.
Data set [16] is described as follows: Therapeutic index, ratio of HD100 for hemolytic activity in human erythrocytes to MIC against Pseudomonas aeruginosa. The conditions noted are these: read-out: TI. The data set is classed as toxicity, cell-based.
Data set [17] concerns Staphylococcus aureus. In words: Antibacterial activity against Staphylococcus aureus after 24 hrs by microtitre dilution method. It is filed as functional.
Another data set deals with Candida albicans. Put plainly: Antibacterial activity against Candida albicans after 24 hrs by microtitre dilution method. It is filed as functional.
The test system of data set [18] is Pseudomonas aeruginosa. Put plainly: Antibacterial activity against Pseudomonas aeruginosa after 24 hrs by microtitre dilution method. It is filed as functional.
The nature of data set [19]: Therapeutic index, ratio of HD100 for hemolytic activity in human erythrocytes to MIC against Escherichia coli. It is filed as toxicity, cell-based. Conditions: read-out: TI.
The nature of data set [20]: Therapeutic index, ratio of HD100 for hemolytic activity in human RBC to MIC against Staphylococcus aureus. It is filed as toxicity. The conditions noted are these: human red blood cells, read-out: TI.

The MIC is the least concentration at which growth counts as inhibited. Low readings indicate greater potency, high ones weaker potency.

Values after ≈ are worked out from the molar mass of the structure shown. Square brackets hold non-standard residues; d marks the D form. Peptide text beside a SMILES is read from it.

As for `CC(C)C[C@@H]1NC(=O)[C@H](CCCN)NC(=O)[C@H](C(C)C)NC(=O)[C@@H]2CCCN2C(=O)[C@@H](Cc2ccccc2)NC(=O)[C@H](CC(C)C)NC(=O)[C@H](CCCN)NC(=O)[C@H](C(C)C)NC(=O)[C@H]2CC[C@H](OCc3ccccc3)[C@@H](CNC1=O)O2`, the HD100 in the data set on Erythrocyte [1] was found to be 500 µg/mL.

Take `CCCCCCCC[C@H]1CC2C(C1)[C@@H]1SC[C@H]3C(=O)N[C@@H](C(C)C)C(=O)N[C@@H](CCCN)C(=O)N[C@@H](CC(C)C)C(=O)N[C@H](Cc4ccccc4)C(=O)N4CCC[C@H]4C(=O)N[C@@H](C(C)C)C(=O)N[C@H](CCCN)C(=O)N[C@@H](CC(C)C)C(=O)N[C@H]2C(=O)N31` (stereo partly specified): the MIC is 4 µg/mL (≈ 3.21 µM) in the data set with Staphylococcus aureus [2]; 64 µg/mL (≈ 51.3 µM) against Escherichia coli [5]; 128 µg/mL (≈ 103 µM) against Pseudomonas aeruginosa [7]; 4 µg/mL (≈ 3.21 µM) in data set [10]; 8 µg/mL (≈ 6.41 µM) in the data set on Enterococcus faecalis [11]. Further, the HC90 in the data set on Erythrocyte [3] stood at 38 µg/mL. Also, the selectivity ratio in [4] was determined as 0.59; in [6], 0.3; in data set [8], 9.5; in data set [9], 4.75; in data set [12], 9.5.

For the compound `CC(C)C[C@@H]1NC(=O)[C@H](CCCCN)NC(=O)[C@H](C(C)C)NC(=O)[C@@H]2CCCN2C(=O)[C@@H](Cc2ccc(O)cc2)NC(=O)[C@H](CC(C)C)NC(=O)[C@H](CCCCN)NC(=O)[C@H](C(C)C)NC(=O)[C@H](CCCCN)NC(=O)[C@H](CC(C)C)NC(=O)[C@H](CCCCN)NC(=O)[C@@H]2CCCN2C(=O)[C@@H](Cc2ccc(O)cc2)NC(=O)[C@H](CCCCN)NC(=O)[C@H](C(C)C)NC(=O)[C@H](CCCCN)NC1=O` (cyclo(VKLKVK[dY]PKLKVKL[dY]P)), the selectivity ratio in data set [13] was more than 50; in [16] it was more than 3.1; in data set [19] it was more than 50; in [20], more than 25. For the same compound, the MIC in the data set with Enterococcus faecalis [14] came to 4 µg/mL (≈ 2.08 µM); against Escherichia coli [15], 4 µg/mL (≈ 2.08 µM); in the data set with Staphylococcus aureus [17], 8 µg/mL (≈ 4.15 µM); in the data set with Candida albicans it was 16 µg/mL (≈ 8.31 µM); with Pseudomonas aeruginosa [18], 64 µg/mL (≈ 33.2 µM).
